Test results: US12414990B2, “Use of HLA-A*11:01-restricted hepatitis B virus (HBV) peptides for identifying HBV-specific CD8+ T cells” (AGENCY FOR SCIENCE, TECHNOLOGY AND RESEARCH, priority 2019, dated 2025)
“Also recorded” adds a separate entry of the source.

How the values were obtained:
[1] = test system: virus-specific CD8+ T cells in patient PBMC; experiment: In vitro virus-specific CD8+ T cell expansion by peptide stimulation with intracellular cytokine staining; type: cell-based, human
Method: PBMC from patients were thawed and recovered, and then resuspend in AIM-V medium (with 2% human AB serum, 1% penicillin/streptomycin/L-glutamine, 1% 1M HEPES) (Gibco, Invitrogen) with 20 IU/ml of recombinant human IL-2 (R&D). Cells were pulsed with corresponded HBV or control peptides at 1 μM per 1 million cells in 200 μl medium in 96-well round-bottom tissue culture plate and cultured for 10 days at 37° C. Half of the medium was replaced as supplementary every three days without any peptide. […] After incubation, cells were collected and then stained with the 50-plex pMHC tetramers (table S1) and surface antibodies. Intracellular cytokine staining was performed on the second day as indicated in (table S2). All staining, cellular barcoding, and CD8 T cell enrichment were done in the same manner as ex vivo staining described above.

[2] = test system: antigen-specific CD8+ T cells; experiment: High-dimensional phenotypic profiling of antigen-specific CD8+ T cells (t-SNE, Phenograph, One-SENSE, Scorpius); type: cell-based, human
Method: Validated antigen-specific CD8+ T cells were exported individually from each donor for dimensionality reduction analysis. Detailed methodology for t-SNE and One-SENSE can be found elsewhere. Briefly, t-SNE and One-SENSE were performed using custom R scripts based on “flowCore” and “Rtsne” packages downloaded from The Comprehensive R Archive Network (CRAN). All data were transformed using the “logicleTransform” function and w=0.25, t=16409, m=4.5, a=0 as input parameters to roughly match scaling historically used in FlowJo. Cellular markers analyzed by t-SNE and One-SENSE were indicated (table S2). For One-SENSE, cellular markers in each T cell category (“Differentiation+TNFR”, “Exhaustion” and “Trafficking”) were subjectively assigned for categorical analysis. Aligned heatplots represent the distribution of marker positive cells in percentage on each “bin” on the axis (category) constructed by cells residing in small ranges of values. Positive population of markers was manually defined and markers of the same category were combined for each dimension using 250 bins.
Logistic regression was performed using the drc R package (v 3.0.1) using a 3-parameters logistic model.

[3] = test system: HLA-A*11:01-restricted antigen-specific CD8+ T cells in patient's PBMC; experiment: Highly multiplexed combinatorial pMHC tetramer staining with mass cytometry (epitope mapping, frequency of antigen-specific CD8+ T cells); details: ex vivo PBMC; groups IT, IA, InA, R, HD, CB

LVVDFSQFSR (Hepatitis B virus) [HBV-P-387]
expansion of antigen-specific CD8+ T cells upon peptide stimulation ([1]; 10 days in vitro culture, 1 μM peptide): less expanded in IT patients
functional subset of virus-specific CD8+ T cells after antigen recall (One-SENSE) ([1]; 10 days in vitro peptide stimulation, restimulation 7 hours): multi-functional subset
numbers of co-expressed inhibitory receptors on epitope-specific CD8+ T cells ([2]; Boolean strategy, across patient groups): no differences in terms of the numbers accumulated on the cells across patient groups
proportion of cells with C13-like phenotype (CXCR3+CD27hiCD127hi) within HBVpol387-specific CD8+ T cells ([2]; IT patients): ~80%
detection / frequency of epitope-specific CD8+ T cells across patient groups [3]: highest frequencies observed; also recorded: relatively high frequency in CHB and also in half of the HD tested
